From PubChem BioAssay (NCI)
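All cell lines were grown in 96-well plates and treated with compound for 48 hours. Here, GI50 denotes the concentration required for 50% inhibition of growth. Definition used: TGI = concentration required for complete inhibition of growth.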

Tests used:
Experiment in all cases: growth of human tumour cells (NCI), 48 h
[1] = test system: OVCAR-5 ovarian
[2] = test system: TK-10 renal
[3] = test system: HOP-62 NSCLC
[4] = test system: HL-60(TB) leukemia
[5] = test system: OVCAR-8 ovarian
[6] = test system: CCRF-CEM leukemia
[7] = test system: DU-145 prostate
[8] = test system: HT29 colon
[9] = test system: SF-268 CNS
[10] = test system: KM12 colon
[11] = test system: NCI-H460 lung
[12] = test system: HOP-92 NSCLC
[13] = test system: 786-0 renal
[14] = test system: SK-OV-3 ovarian
[15] = test system: ACHN renal
[16] = test system: UO-31 renal
[17] = test system: SF-539 CNS
[18] = test system: U251 CNS
[19] = test system: COLO 205 colon
[20] = test system: OVCAR-3 ovarian
[21] = test system: NCI-H23 lung
[22] = test system: MOLT-4 leukemia
[23] = test system: MDA-MB-435
[24] = test system: MDA-MB-231 breast
[25] = test system: A549 NSCLC
[26] = test system: SR leukemia
[27] = test system: BT-549 breast
[28] = test system: SF-295 CNS
[29] = test system: K-562 leukemia
[30] = test system: MCF7 breast
[31] = test system: M14 melanoma
[32] = test system: LOX IMVI melanoma
[33] = test system: NCI/ADR-RES ovarian
[34] = test system: RXF 393 renal
[35] = test system: NCI-H522 lung
[36] = test system: HS 578T breast
[37] = test system: RPMI-8226 leukemia
[38] = test system: HCT-15 colon
[39] = test system: SK-MEL-28 melanoma
[40] = test system: T-47D breast
[41] = test system: SNB-19 CNS
[42] = test system: HCT-116 colon
[43] = test system: PC-3 prostate
[44] = test system: HCC-2998 colon
[45] = test system: SW-620 colon
[46] = test system: SK-MEL-5 melanoma
[47] = test system: UACC-257 melanoma
[48] = test system: SK-MEL-2 melanoma
[49] = test system: MALME-3M melanoma
[50] = test system: SN12C renal
[51] = test system: UACC-62 melanoma
[52] = test system: A498 renal
[53] = test system: CAKI-1 renal
[54] = test system: EKVX NSCLC
[55] = test system: NCI-H226 lung

CC(=O)OC1OC([C@@H]2c3cccc(O)c3C(=O)c3c(O)cc(C)cc32)C(O)C(O)C1O (some centres undefined)
GI50 [1]: 0.0323 µM
TGI [1]: 0.36 µM
GI50 [2]: 0.0286 µM
TGI [2]: 0.26 µM
GI50 [3]: 0.0985 µM
TGI [3]: 0.995 µM
GI50 [4]: 0.0173 µM
TGI [4]: 0.0493 µM
GI50 [5]: 0.122 µM
TGI [5]: 4 µM
GI50 [6]: 0.0494 µM
TGI [6]: 1.63 µM
GI50 [7]: 0.137 µM
TGI [7]: 1.69 µM
GI50 [8]: 0.059 µM
TGI [8]: > 100 µM
GI50 [9]: 0.106 µM
TGI [9]: 4.52 µM
GI50 [10]: < 0.01 µM
GI50 [11]: 0.108 µM
GI50 [12]: 0.0233 µM
TGI [12]: 0.0717 µM
GI50 [13]: 0.13 µM
TGI [13]: 1.27 µM
GI50 [14]: 0.134 µM
TGI [14]: 3.17 µM
GI50 [15]: 0.0319 µM
TGI [15]: 0.282 µM
GI50 [16]: 0.0419 µM
TGI [16]: 1.11 µM
GI50 [17]: 0.0419 µM
TGI [17]: 1.47 µM
GI50 [18]: < 0.0152 µM
TGI [18]: 0.257 µM
GI50 [19]: 0.0429 µM
TGI [19]: 2.68 µM
GI50 [20]: < 0.018 µM
TGI [20]: 0.0485 µM
GI50 [21]: < 0.0199 µM
TGI [21]: 0.216 µM
GI50 [22]: 0.0384 µM
TGI [22]: 0.662 µM
GI50 [23]: < 0.0185 µM
TGI [23]: 0.691 µM
GI50 [24]: < 0.0153 µM
TGI [24]: 0.0377 µM
GI50 [25]: 0.109 µM
TGI [25]: 1.94 µM
GI50 [26]: 0.032 µM
TGI [26]: 0.0859 µM
GI50 [27]: 0.0181 µM
TGI [27]: 0.778 µM
GI50 [28]: < 0.0166 µM
TGI [28]: 0.119 µM
GI50 [29]: 0.0216 µM
TGI [29]: 1.39 µM
GI50 [30]: 0.282 µM
TGI [30]: 2.78 µM
GI50 [31]: 0.12 µM
TGI [31]: 1.9 µM
GI50 [32]: < 0.0141 µM
TGI [32]: 0.0481 µM
GI50 [33]: 0.0391 µM
TGI [33]: 0.773 µM
GI50 [34]: 0.35 µM
TGI [34]: 1.58 µM
TGI [35]: 0.382 µM
GI50 [36]: < 0.0103 µM
GI50 [37]: < 0.0153 µM
TGI [37]: < 0.0292 µM
GI50 [38]: 0.0305 µM
TGI [38]: 1.46 µM
GI50 [39]: 0.0514 µM
TGI [39]: 3.6 µM
GI50 [40]: 0.306 µM
TGI [40]: 0.87 µM
GI50 [41]: 0.392 µM
TGI [41]: 21.4 µM
GI50 [42]: 0.108 µM
TGI [42]: 1.2 µM
GI50 [43]: < 0.01 µM
GI50 [44]: < 0.01 µM
GI50 [45]: 0.0231 µM
TGI [45]: 1.73 µM
GI50 [46]: < 0.0119 µM
TGI [46]: 0.0294 µM
GI50 [47]: 0.0951 µM
TGI [47]: 1.33 µM
GI50 [48]: 0.162 µM
TGI [48]: 2.14 µM
GI50 [49]: 0.0288 µM
TGI [49]: 0.0902 µM
GI50 [50]: < 0.0179 µM
TGI [50]: < 0.0321 µM
GI50 [51]: 0.0211 µM
TGI [51]: 1.52 µM
GI50 [52]: 0.0444 µM
TGI [52]: 0.358 µM
GI50 [53]: 0.0269 µM
TGI [53]: 0.241 µM
GI50 [54]: 0.026 µM
TGI [54]: 0.368 µM
GI50 [55]: 0.012 µM
TGI [55]: 0.0806 µM
